Test results published in the NIST ThermoML archive (doi:10.1016/j.jct.2014.04.025).
± gives the expanded uncertainty stated by the source. One block for each molecule: values may come before it.

Conditions: 101.33 kPa, Liquid, Vibrating tube method

mass density (298.15 K): 679.54 ± 1 kg/m3
Compound: CCCCCCC [heptane]

mass density (298.15 K): 799.52 ± 1 kg/m3
Compound: CCCO [propan-1-ol]

mass density (298.15 K): 1058.92 ± 1 kg/m3
Compound: c1ccsc1 [thiophene]

The remaining lines, values behind:

Compound: CCCC[N+]1(C)CCCC1.N#CC(=C=[N-])C#N [1-butyl-1-methylpyrrolidinium tricyanomethanide]
mass density (298.15 K): 1006.91 ± 1.3 kg/m3

Compound: CCCC[N+]1(C)CCCC1.O=S(=O)([O-])C(F)(F)F [1-butyl-1-methylpyrrolidinium trifluoromethanesulfonate]
mass density (298.15 K): 1252.75 ± 1.1 kg/m3

Compound: CCCCCCn1cc[n+](C)c1.N#C[B-](C#N)(C#N)C#N [1-hexyl-3-methylimidazolium tetracyanoborate]
mass density (308.15 K): 983.03 ± 1 kg/m3

Compound: CC(C)=O [acetone]
mass density (298.15 K): 785.32 ± 1 kg/m3

Compound: c1ccc2sccc2c1 [benzo[b]thiophene]
mass density (308.15 K): 1150.81 ± 1 kg/m3 | mass density (318.15 K): 1141.83 ± 1 kg/m3 | mass density (328.15 K): 1132.85 ± 1 kg/m3
